Results taken from patent publication US12398154B2, “Azaquinazoline pan-KRas inhibitors” (Mirati Therapeutics, Inc., priority 2020, dated 2025).

Experiments:
KRas G13D = biological target: T1, KRas G13D (Homo sapiens, UniProt P01116, G13D); assay: KRas binding assay (TR-FRET displacement);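 further: One-hour room temperature incubation before TR-FRET reading, IC50 from a four-parameter curve fit to percent-of-control data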
T1 construct: Biotinylated KRas (corresponding to amino acids 1-169, produced at Accelegan Inc.); biotin (biotinylated); purchased Accelegan Inc
T1 sequence (P01116 1-169 isoform P01116-2 G13D): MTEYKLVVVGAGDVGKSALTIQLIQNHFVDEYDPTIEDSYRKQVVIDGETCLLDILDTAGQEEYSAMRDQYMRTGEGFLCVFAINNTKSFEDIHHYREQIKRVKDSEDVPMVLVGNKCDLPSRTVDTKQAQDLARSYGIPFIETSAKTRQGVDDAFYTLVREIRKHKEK
Procedure: (§1) The ability of a compound to bind to KRas was measured using a TR-FRET displacement assay. […] After a 60-minute incubation at room temperature, the reaction was measured using a BMG LABTECH CLARIO star Plus via TR-FRET. […] The POC values were fit to a 4-parameter IC50 equation and the IC50 value reported.

KRas Q61H = biological target: T2, KRas Q61H (Homo sapiens, UniProt P01116, Q61H); assay: KRas binding assay (TR-FRET displacement);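 further: TR-FRET signal read after one hour at room temperature, IC50 derived by four-parameter fitting of percent-of-control values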
T2 construct: Biotinylated KRas (corresponding to amino acids 1-169, produced at Accelegan Inc.); biotin (biotinylated); purchased Accelegan Inc
T2 sequence (P01116 1-169 isoform P01116-2 Q61H): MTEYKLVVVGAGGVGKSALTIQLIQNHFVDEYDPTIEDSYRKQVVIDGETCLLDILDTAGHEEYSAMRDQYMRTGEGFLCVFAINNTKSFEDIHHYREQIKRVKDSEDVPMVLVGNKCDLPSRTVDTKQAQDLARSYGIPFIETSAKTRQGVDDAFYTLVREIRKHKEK
Procedure: as §1

KRas G12D = KRas G12D (Homo sapiens, UniProt P01116, G12D); assay: biochemical;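 further: TR-FRET displacement binding assay on KRas, read after a one-hour incubation at room temperature, IC50 fitted from percent-of-control values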
KRas G12D, sequence (P01116 1-169 isoform P01116-2 G12D): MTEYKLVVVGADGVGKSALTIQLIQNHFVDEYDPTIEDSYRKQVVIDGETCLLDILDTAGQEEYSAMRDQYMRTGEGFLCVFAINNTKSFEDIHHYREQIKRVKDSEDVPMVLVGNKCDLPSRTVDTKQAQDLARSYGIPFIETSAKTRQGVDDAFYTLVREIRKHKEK
Procedure: as §1

KRas G12V = KRas G12V (Homo sapiens, UniProt P01116, G12V); assay: biochemical;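 further: KRas binding measured by TR-FRET displacement at room temperature, IC50 fitted from percent of control values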
KRas G12V, sequence (P01116 1-169 isoform P01116-2 G12V): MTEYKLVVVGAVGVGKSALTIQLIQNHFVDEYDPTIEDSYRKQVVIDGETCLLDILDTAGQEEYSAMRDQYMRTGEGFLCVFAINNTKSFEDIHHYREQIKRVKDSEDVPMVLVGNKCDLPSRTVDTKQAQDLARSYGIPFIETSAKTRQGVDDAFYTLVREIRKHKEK
Procedure: as §1

KRas G12R = KRas G12R (Homo sapiens, UniProt P01116, G12R); assay: biochemical;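 further: TR-FRET displacement assay of compound binding to KRas, read after one hour at room temperature, potency from a four-parameter fit of percent-of-control values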
KRas G12R, sequence (P01116 1-169 isoform P01116-2 G12R): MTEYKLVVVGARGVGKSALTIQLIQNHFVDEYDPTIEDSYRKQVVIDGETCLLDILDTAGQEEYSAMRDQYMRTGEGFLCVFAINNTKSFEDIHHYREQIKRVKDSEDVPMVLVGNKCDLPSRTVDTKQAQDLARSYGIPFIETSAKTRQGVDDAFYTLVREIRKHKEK
Procedure: as §1

KRas G12A = KRas G12A (Homo sapiens, UniProt P01116, G12A); assay: biochemical;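 further: binding to KRas measured by TR-FRET displacement after one hour at room temperature, IC50 from a four-parameter fit of percent-of-control values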
KRas G12A, sequence (P01116 1-169 isoform P01116-2 G12A): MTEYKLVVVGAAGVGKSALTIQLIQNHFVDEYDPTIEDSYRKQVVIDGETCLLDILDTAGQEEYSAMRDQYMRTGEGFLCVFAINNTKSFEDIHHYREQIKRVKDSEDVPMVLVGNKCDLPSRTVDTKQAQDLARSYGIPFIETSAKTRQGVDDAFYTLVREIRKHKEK
Procedure: as §1

KRas G12S = KRas G12S (Homo sapiens, UniProt P01116, G12S); assay: biochemical;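 further: TR-FRET displacement binding to KRas, read after one hour incubation at room temperature, IC50 from four-parameter fit of percent of control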
KRas G12S, sequence (P01116 1-169 isoform P01116-2 G12S): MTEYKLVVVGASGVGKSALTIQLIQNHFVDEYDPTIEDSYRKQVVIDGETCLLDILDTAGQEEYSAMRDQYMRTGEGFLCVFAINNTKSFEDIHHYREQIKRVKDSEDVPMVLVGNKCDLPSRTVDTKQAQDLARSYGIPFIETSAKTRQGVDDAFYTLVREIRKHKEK
Procedure: as §1

KRas G12C = KRas G12C (Homo sapiens, UniProt P01116, G12C); assay: biochemical;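 further: binding to KRas assessed by TR-FRET displacement after one hour incubation at room temperature, potency fitted from percent-of-control values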
KRas G12C, sequence (P01116 1-169 isoform P01116-2 G12C): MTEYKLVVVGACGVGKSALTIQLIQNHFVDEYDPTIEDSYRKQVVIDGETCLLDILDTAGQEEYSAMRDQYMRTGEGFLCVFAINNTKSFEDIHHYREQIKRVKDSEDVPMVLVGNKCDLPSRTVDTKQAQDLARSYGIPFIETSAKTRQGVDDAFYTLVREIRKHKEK
Procedure: as §1

KRas WT = KRas WT (Homo sapiens, UniProt P01116); assay: biochemical;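 further: binding to KRas read as TR-FRET displacement after a one-hour room-temperature incubation, IC50 derived from percent-of-control values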
KRas WT, sequence (P01116 1-169 isoform P01116-2): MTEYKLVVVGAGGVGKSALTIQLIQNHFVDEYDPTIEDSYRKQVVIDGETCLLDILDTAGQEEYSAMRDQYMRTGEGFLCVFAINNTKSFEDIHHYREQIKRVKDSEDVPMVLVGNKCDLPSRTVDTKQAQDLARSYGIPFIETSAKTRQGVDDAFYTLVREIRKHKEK
Procedure: as §1

IC50 (KRas G13D) [nM] | IC50 (KRas Q61H) [nM] | IC50 (KRas G12D) [µM] | IC50 (KRas G12V) [µM] | IC50 (KRas G12R) [µM] | IC50 (KRas G12A) [µM] | IC50 (KRas G12S) [µM] | IC50 (KRas G12C) [µM] | IC50 (KRas WT) [µM] | Structure (SMILES)
1890 | 1990 | 0.392 | 0.498 | 0.992 | 0.735 | 0.703 | 0.509 | 1.2 | OCC1COCCN(c2nc(OCC34CCCN3CCC4)nc3c(F)c(-c4cccc5cccc(F)c45)ncc23)C1 (stereo not drawn) [Example 83, (4-(8-fluoro-7-(8-fluoronaphthalen-1-yl)-2-((hexahydro-1H-pyrrolizin-7a-yl)methoxy)pyrido[4,3-d]pyrimidin-4-yl)-1,4-oxazepan-6-yl)methanol]
5070 | 5860 | 12.7 | 1.86 | 2.5 | 1.65 | 2.07 | 0.863 | 4.29 | Fc1c(-c2cccc3cccc(F)c23)ncc2c(NCCCc3cc[nH]n3)nc(OCC34CCCN3CCC4)nc12 [Example 84, N-(3-(1H-pyrazol-3-yl)propyl)-8-fluoro-7-(8-fluoronaphthalen-1-yl)-2-((hexahydro-1H-pyrrolizin-7a-yl)methoxy)pyrido[4,3-d] pyrimidin-4-amine]
4660 | 10900 | 44 | 3.7 | 2.12 | 2.85 | 4.64 | 2.15 | 4.52 | OCC12CC(Nc3nc(OCC45CCCN4CCC5)nc4c(F)c(-c5cccc6cccc(F)c56)ncc34)(C1)C2 [Example 85, (3-((8-fluoro-7-(8-fluoronaphthalen-1-yl)-2-((hexahydro-1H-pyrrolizin-7a-yl)methoxy)pyrido[4,3-d]pyrimidin-4-yl)amino)bicyclo[1.1.1]pentan-1-yl)methanol]
3000 | 4780 | 6.9 | 3.1 | 8.49 | 2.25 | 2.39 | 3.08 | 2.41 | NC(=O)C1CCCN(c2nc(OCC34CCCN3CCC4)nc3c(F)c(-c4cccc5cccc(F)c45)ncc23)C1 (stereo not drawn) [Example 86, 1-(8-fluoro-7-(8-fluoronaphthalen-1-yl)-2-((hexahydro-1H-pyrrolizin-7a-yl)methoxy)pyrido[4,3-d]pyrimidin-4-yl)piperidine-3-carboxamide]
5260 | 9500 | 3.36 | 3.66 | 11.9 | 7.12 | 10.8 | 5.94 | 6.09 | N#CC1CCCN(c2nc(OCC34CCCN3CCC4)nc3c(F)c(-c4cccc5cccc(F)c45)ncc23)CC1 (stereo not drawn) [Example 87, 1-(8-fluoro-7-(8-fluoronaphthalen-1-yl)-2-((hexahydro-1H-pyrrolizin-7a-yl)methoxy)pyrido[4,3-d]pyrimidin-4-yl)azepane-4-carbonitrile]
9310 | 14700 | 30.7 | 2.18 | 4.37 | 1.82 | 4.24 | 2.51 | 7.17 | Cn1cc(CNc2nc(OCC34CCCN3CCC4)nc3c(F)c(-c4cccc5cccc(F)c45)ncc23)ccc1=O [Example 88, 5-(((8-fluoro-7-(8-fluoronaphthalen-1-yl)-2-((hexahydro-1H-pyrrolizin-7a-yl)methoxy)pyrido[4,3-d]pyrimidin-4-yl)amino)methyl)-methylpyridin-2 (1H)-one]
1810 | 3270 | 2.28 | 1.02 | 2.6 | 1.25 | 1.55 | 1.06 | 1.4 | O[C@@H]1C[C@H](O)CN(c2nc(OCC34CCCN3CCC4)nc3c(F)c(-c4cccc5cccc(F)c45)ncc23)C1 [Example 89, (3S,5R)-1-(8-fluoro-7-(8-fluoronaphthalen-1-yl)-2-((hexahydro-l H-pyrrolizin-7a-yl)methoxy)pyrido[4,3-d]pyrimidin-4-yl)piperidine-3,5-diol]
8210 | 19600 | 40.2 | 3.47 | 4.19 | 5.14 | 6.48 | 4.18 | 7.24 | OC12CC(Nc3nc(OCC45CCCN4CCC5)nc4c(F)c(-c5cccc6cccc(F)c56)ncc34)(C1)C2 [Example 90, 3-((8-fluoro-7-(8-fluoronaphthalen-1-yl)-2-((hexahydro-1H-pyrrolizin-7a-yl)methoxy)pyrido[4,3-d]pyrimidin-4-yl)amino)bicyclo[1.1.1]pentan-1-ol]
36600 | 31400 | ≥ 100 | 12.7 | 2.2 | 12.7 | 17.9 | 11.3 | 14.1 | O=C(O)[C@H]1C[C@H](Nc2nc(OCC34CCCN3CCC4)nc3c(F)c(-c4cccc5cccc(F)c45)ncc23)C1 [Example 91, trans-3-((8-fluoro-7-(8-fluoronaphthalen-1-yl)-2-((tetrahydro-1H-pyrrolizin-7a(5H)-yl)methoxy)pyrido[4,3-d]pyrimidin-4-yl)amino)cyclobutane-1-carboxylic acid]
8560 | 17300 | 20.8 | 1.72 | 1.98 | 6.55 | 6.87 | 3.41 | 8.8 | Fc1c(-c2cccc3cccc(F)c23)ncc2c(NCc3ncc4cc[nH]c4n3)nc(OCC34CCCN3CCC4)nc12 [Example 92, N-((7H-pyrrolo[2,3-d]pyrimidin-2-yl)methyl)-8-fluoro-7-(8-fluoronaphthalen-1-yl)-2-((hexahydro-1H-pyrrolizin-7a-yl)methoxy)pyrido[4,3-d]pyrimidin-4-amine]
20400 | 21800 | 83.6 | 2.93 | 3.39 | 7.84 | 10.2 | 4.05 | 14.9 | Fc1c(-c2cccc3cccc(F)c23)ncc2c(NCc3cn[nH]c3)nc(OCC34CCCN3CCC4)nc12 [Example 93, N-((1H-pyrazol-4-yl)methyl)-8-fluoro-7-(8-fluoronaphthalen-1-yl)-2-((hexahydro-1H-pyrrolizin-7a-yl)methoxy)pyrido[4,3-d]pyrimidin-4-amine]
1250 | 1850 | 4.51 | 0.146 | 0.115 | 0.24 | 0.368 | 0.183 | 1.39 | Fc1c(-c2cccc3cccc(F)c23)ncc2c(NCc3c[nH]c4ncccc34)nc(OCC34CCCN3CCC4)nc12 [Example 94, N-((1H-pyrrolo[2,3-b]pyridin-3-yl)methyl)-8-fluoro-7-(8-fluoronaphthalen-1-yl)-2-((tetrahydro-1H-pyrrolizin-7a(5H)-yl)methoxy)pyrido[4,3-d]pyrimidin-4-amine]
7180 | 10300 | 55 | 4.99 | 3.06 | 5 | 4.12 | 3.62 | 3.99 | O=S1(=O)CC(Nc2nc(OCC34CCCN3CCC4)nc3c(F)c(-c4cccc5cccc(F)c45)ncc23)C1 [Example 95, 3-((8-fluoro-7-(8-fluoronaphthalen-1-yl)-2-((hexahydro-1H-pyrrolizin-7a-yl)methoxy)pyrido[4,3-d]pyrimidin-4-yl)amino)thietane1,1-dioxide]
10700 | 22100 | 62.9 | 1.94 | 3.19 | 2.5 | 3.23 | 1.95 | 5.71 | O=c1ccc(CNc2nc(OCC34CCCN3CCC4)nc3c(F)c(-c4cccc5cccc(F)c45)ncc23)c[nH]1 [Example 96, 5-(((8-fluoro-7-(8-fluoronaphthalen-1-yl)-2-((hexahydro-1H-pyrrolizin-7a-yl)methoxy)pyrido[4,3-d]pyrimidin-4-yl)amino)methyl)pyridin-2 (1H)-one]
297 | 412 | 0.175 | 0.189 | 0.348 | 0.227 | 0.272 | 0.192 | 0.333 | O=C1CC2(CCCN(c3nc(OCC45CCCN4CCC5)nc4c(F)c(-c5cccc6cccc(F)c56)ncc34)C2)N1 (stereo not drawn) [Example 97, 6-(8-fluoro-7-(8-fluoronaphthalen-1-yl)-2-((hexahydro-1H-pyrrolizin-7a-yl)methoxy)pyrido[4,3-d]pyrimidin-4-yl)-1,6-diazaspiro[3.5]nonan-2-one]
3210 | 4770 | 1.89 | 3.01 | 6.42 | 2.91 | 4.01 | 2.84 | 3.36 | O=C1NCC12CCCN(c1nc(OCC34CCCN3CCC4)nc3c(F)c(-c4cccc5cccc(F)c45)ncc13)C2 (stereo not drawn) [Example 98, 6-(8-fluoro-7-(8-fluoronaphthalen-1-yl)-2-((tetrahydro-1H-pyrrolizin-7a(5H)-yl)methoxy)pyrido[4,3-d]pyrimidin-4-yl)-2,6-diazaspiro[3.5]nonan-1-one]
